Source: patent US10435372B2, “Use of phenylpyrazolin-3-carboxylates for improving plant yield” (BAYER INTELLECTUAL PROPERTY GMBH, priority 2011, dated 2019)

What was measured:
Format in all cases: in vivo
[1] = system: spring wheat; experiment: Field trial: grain yield of spring wheat, postemergence treatment with MPR + epoxiconazole; conditions: EPC 125, MPR + EPC 100 + 125 g ai/ha
Source text: (§1) The applications have been done with seed treatment, pre- or post-emergence treatments straight (alone, 1 application) or sequential treatments e.g. seed treatment followed by pre-emergence and/or post-emergence spray applications. The pre- or post-emergence applications were made with spray applications using 100-300 l/water per hectare. The growth stage of the crops species at the time of application are reported in the result tables. The dose rates of the herbicidal active ingredients applied alone respective in sequential application are also described in the result tables. The assessments have been done via visual ratings (0-100% scale) or counting. The trials have been harvested after crops reached the full maturity. After the harvest the total weight of kernels/seeds/beets per plot was measured. The results are reported as means over 2-4 replications. The time between applications and assessments or countings/harvest are described in the result tables as well.

[2] = system: winter wheat; experiment: Field trial: grain yield of winter wheat, postemergence treatment with mefenpyr-diethyl
Source text: (§2) The trials have been carried out under natural field conditions (plot trials, 10 square meter plots, 2-4 replications).
(§3) The applications have been done with seed treatment, pre- or post-emergence treatments straight (alone, 1 application) or sequential treatments e.g. seed treatment followed by pre-emergence and/or post-emergence spray applications. The pre- or post-emergence applications were made with spray applications using 100-300 l/water per hectare. The growth stage of the crops species at the time of application are reported in the result tables. The dose rates of the herbicidal active ingredients applied alone respective in sequential application are also described in the result tables.
(§4) The assessments have been done via visual ratings (0-100% scale) or counting. The trials have been harvested after crops reached the full maturity. After the harvest the total weight of kernels/seeds/beets per plot was measured. The results are reported as means over 2-4 replications. The time between applications and assessments or countings/harvest are described in the result tables as well.

[3] = system: spring wheat; experiment: Field trial: grain yield of spring wheat, postemergence treatment with mefenpyr-diethyl
Source text: as §2, §3, §4

[4] = system: durum wheat; experiment: Field trial: grain yield of durum wheat, seed treatment with mefenpyr-diethyl
Source text: as §2, §3, §4
(§5) The active ingredients have been applied to the untreated, dry seeds together with a carrier. After a short period of time to let the seeds dry, they were ready to be sown in the pot or field using standard equipments.

[5] = system: winter wheat; experiment: Field trial: emergence (number of plants) of winter wheat, pre-emergence application of mefenpyr-diethyl; conditions: 11 days after application
Source text: as §2, §3, §4

[6] = system: winter barley; experiment: Field trial: grain yield of winter barley, sequential application of MPR; conditions: 0.5 g ai/kg seed fb 4 × 50 g ai/ha post
Source text: as §2, §3, §4, §5

[7] = system: winter oilseed rape (canola); experiment: Field trial: grain yield of winter oilseed rape (canola), sequential application of mefenpyr-diethyl; conditions: 3 g ai/kg seed fb 3 × 50 g ai/ha post
Source text: as §2, §3, §4, §5

[8] = system: sugarbeet; experiment: Field trial: beet yield of sugarbeet, sequential application of mefenpyr-diethyl; conditions: 0.015 mg ai/seed fb 3 × 50 g ai/ha post
Source text: as §2, §3, §4, §5

[9] = system: sugarbeets; experiment: Field trial: emergence of sugarbeets, seed treatment with MPR; conditions: seed treatment 0.015 mg ai/seed, 28 days after planting
Source text: as §2, §3, §4, §5

[10] = system: sugarbeets; experiment: Field trial: sugar yield of sugarbeets, sequential application of mefenpyr-diethyl; conditions: 0.015 mg ai/seed fb 3 × 50 g ai/ha post
Source text: as §2, §3, §4, §5

[11] = system: spring oilseed rape (canola); experiment: Field trial: grain yield of spring oilseed rape (canola), postemergence treatment with MPR + tebuconazole; conditions: TBC 150, MPR + TBC 100 + 150 g ai/ha
Source text: as §1

[12] = grain yield relative to UTC = 100%

Structure (SMILES): Fc1ccc([C@]2(Cn3cncn3)O[C@H]2c2ccccc2Cl)cc1 (racemic) [EPC, epoxiconazole]
- Relative % [1, 12]: 109.7%
- Difference (%) vs. UTC ([1]; grain yield): +9.7%
- Yield (grain yield at harvest) ([1]; spring wheat, post-emergence spring, flag leaf sheath opening, harvest 55 days after application, UTC 1.84): 2.02 t/ha

Structure (SMILES): CCOC(=O)C1=NN(c2ccc(Cl)cc2Cl)C(C)(C(=O)OCC)C1 (stereo not drawn) [MPR, ethyl 1-(2,4-dichlorophenyl)-5-(ethoxycarbonyl)-5-methyl-2-pyrazoline-3-carboxylate]
- Relative % ([2]; grain yield relative to UTC = 100%, 100 g ai/ha post-emergence, 84 days after application): 106.3%
- Difference (%) vs. UTC ([2]; grain yield, 100 g ai/ha post-emergence, 84 days after application): +6.3%
- Yield (grain yield at harvest) ([2]; winter wheat, 100 g ai/ha post-emergence spring, beginning of stem elongation, harvest 84 days after application, UTC 9.52): 10.12 t/ha
- Relative % ([3]; grain yield relative to UTC = 100%, 100 g ai/ha post-emergence, 72 days after application): 119.2%
- Difference (%) vs. UTC ([3]; grain yield, 100 g ai/ha post-emergence, 72 days after application): +19.2%
- Yield (grain yield at harvest) ([3]; spring wheat, 100 g ai/ha post-emergence spring, flag leaf/beginning of ear heading, harvest 72 days after application, UTC 6.06): 7.16 t/ha
- Yield (grain yield at harvest) ([4]; durum wheat, seed treatment 0.5 g ai/kg seed prior planting, harvest 158 days after application, UTC 4.45): 4.97 t/ha
- Relative % ([4]; grain yield relative to UTC = 100%, seed treatment 0.5 g ai/kg seed): 111.7%
- Difference (%) vs. UTC ([4]; grain yield, seed treatment 0.5 g ai/kg seed): +11.7%
- Relative % ([5]; number of plants relative to UTC = 100%, pre-emergence, dose 100): 107.4%
- Difference (%) vs. UTC ([5]; number of plants, pre-emergence, dose 100): +7.4%
- Yield [plants/row meter] (number of plants, increased emergence) ([5]; winter wheat, pre-emergence treatment, dose 100 g ai/ha, UTC 34.2): 36.8 plants/row meter
- Relative [6, 12]: 104%
- Difference (%) vs. UTC ([6]; grain yield): +4%
- Yield (grain yield at harvest) ([6]; winter barley, harvest 74 days after the last application, UTC 10.01): 10.45 t/ha
- Relative [7, 12]: 107%
- Difference (%) vs. UTC ([7]; grain yield): +7%
- Yield (grain yield at harvest) ([7]; winter oilseed rape, harvest 102 days after the last application, UTC 3.60): 3.85 t/ha
- Relative ([8]; beet yield relative to UTC = 100%): 108.1%
- Difference (%) vs. UTC ([8]; beet yield): +8.1%
- Yield (yield of beets by weight at harvest) ([8]; sugarbeet, harvest 162 days after last application, UTC 58.7): 63.5 t/ha
- Relative ([9]; emerged plants relative to UTC = 100%): 109.2%
- Difference (%) vs. UTC ([9]; emerged plants): +9.2%
- plants/18 row meters (emergence, counting) ([9]; sugarbeets, UTC 65): 71 plants/18 row meters
- Relative ([10]; sugar yield relative to UTC = 100%): 106.1%
- Difference (%) vs. UTC ([10]; sugar yield): +6.1%
- Sugar Yield (by weight at harvest) ([10]; sugarbeets, harvest 162 days after the last application, UTC 5.70): 6.05 t/ha

Structure (SMILES): CC(C)(C)C(O)(CCc1ccc(Cl)cc1)Cn1cncn1 (stereo not drawn) [TBC, tebuconazole]
- Relative % [11, 12]: 102%
- Difference (%) vs. UTC ([11]; grain yield): +2%
- Yield (grain yield at harvest) ([11]; spring oilseed rape, post-emergence spring, beginning of flowering, harvest 92 days after application, UTC 3.91): 3.98 t/ha
